In patent US8785445B2 (Array BioPharma Inc., priority 2008, dated 2014):
Where two headings read alike, the source gives them in different places. Each block holds one compound with its values, some of them ahead of it.

Target: T1, human DP2 (Homo sapiens, UniProt Q9Y5Y4)
T1 construct: expressed in transfected cells; membranes prepared
T1 sequence (Q9Y5Y4 1-395): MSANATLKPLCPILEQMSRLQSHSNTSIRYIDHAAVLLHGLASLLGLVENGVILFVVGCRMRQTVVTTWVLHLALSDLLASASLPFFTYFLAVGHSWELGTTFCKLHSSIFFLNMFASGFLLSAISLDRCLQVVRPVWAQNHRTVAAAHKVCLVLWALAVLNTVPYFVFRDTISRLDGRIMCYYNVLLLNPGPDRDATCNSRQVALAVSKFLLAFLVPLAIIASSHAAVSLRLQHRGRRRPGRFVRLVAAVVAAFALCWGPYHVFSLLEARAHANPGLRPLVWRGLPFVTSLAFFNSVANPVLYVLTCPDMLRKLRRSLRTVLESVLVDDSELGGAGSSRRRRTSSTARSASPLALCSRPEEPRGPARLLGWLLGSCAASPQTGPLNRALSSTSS
Test: DP-2 binding inhibition assay (3H-PGD2, membranes of DP2-expressing K562 cells)
Experimental: The coding sequence of human DP2 was introduced into the human Leukemic cell line K562 by electroporation and stable clones expressing DP2 were obtained by limiting dilution followed by cell surface staining with a rat monoclonal antibody specific for human DP2. Membranes were prepared from one of these DP2 expressing clones and used to determine the ability of the compounds of the present invention to inhibit binding of prostaglandin D2 (PGD2) to its receptor DP2 in the presence of one or more of the following serum protein concentrations, 0.1% BSA, 1% HSA or 4% HSA, by the following procedure. […] After incubation for 60 minutes at room temperature, the assay was transferred to a filtration plate (#MAFB; Millipore Corporation, Bedford, Mass.), and washed three times with binding buffer. Radioactivity was measured by a scintillation counter (TopCount; PerkinElmer Life Sciences, Boston, Mass.). Nonspecific binding was determined by incubations in the presence of 1 μM unlabeled PGD2 or 5 μM of a known DP2 antagonist. IC50 values for inhibition of binding were determined for each compound tested from the inflexion point of a standard 4-parameter logistical curve fitted to the values obtained.

[1] = 4% HSA, read-out: EC50 (nM) 4% HSA
[2] = 0.1% BSA, read-out: EC50 (nM) 0.1% BSA
[3] = 1% HSA, read-out: EC50 (nM) 1% HSA

SMILES: O=C(Nc1ccc2cc(Cl)ccc2n1)c1ccc(Oc2cc3c(cc2Cl)[C@H](C(=O)O)CCO3)cc1 (single isomer, unassigned; enantiomer 1) [Example 36, 6-Chloro-7-(4-(6-chloroquinolin-2-ylcarbamoyl)phenoxy)chroman-4-carboxylic acid, Enantiomer 1]
EC50 [1]: 84 nM

SMILES: O=C(Nc1cccc(-c2ccc(Cl)cc2)n1)c1ccc(Oc2cc3c(cc2Cl)[C@@H](C(=O)O)CCO3)cc1 (single isomer, unassigned; enantiomer 1) [Example 141, 6-Chloro-7-(4-(6-(4-chlorophenyl)pyridin-2-ylcarbamoyl)phenoxy)chroman-4-carboxylic acid, Enantiomer 1]
EC50 [1]: 3920 nM

SMILES: O=C(Nc1cccc(-c2ccc(Cl)cc2)n1)c1ccc(Oc2cc3c(cc2Cl)[C@H](C(=O)O)CCO3)cc1 (single isomer, unassigned; enantiomer 2) [Example 142, 6-Chloro-7-(4-(6-(4-chlorophenyl)pyridin-2-ylcarbamoyl)phenoxy)chroman-4-carboxylic acid, Enantiomer 2]
EC50 [1]: 21.7 nM

SMILES: O=C(Nc1cccc(-c2ccc(Cl)cc2)n1)c1ccc(Oc2cc3c(cc2Cl)C(C(=O)O)CCO3)cc1 (single isomer, unassigned; enantiomer 2) [Example 182, Enantiomer 2 of 6-Chloro-7-(4-(6-(4-chlorophenyl)pyridin-2-ylcarbamoyl)phenoxy)chroman-4-carboxylic acid]
EC50 [1]: 22 nM

SMILES: O=C(Nc1ccc(-c2ccc(C(F)(F)F)cc2)nn1)c1ccc(Oc2cc3c(cc2Cl)C(C(=O)O)CCO3)cc1 (single isomer, unassigned; enantiomer 2) [Example 185, Enantiomer 2 of sodium 6-chloro-7-(4-(6-(4-(trifluoromethyl)phenyl)pyridazin-3-ylcarbamoyl)phenoxy)chroman-4-carboxylate]
EC50 [2]: 1.2 nM
EC50 [1]: 60 nM

SMILES: O=C(Nc1cccc(-c2ccc(Cl)cc2)n1)c1ccc(Oc2cc3c(cc2Cl)C(C(=O)O)CCO3)cc1 (stereo in doubt) [Example 206, (R)-6-chloro-7-(4-(6-(4-chlorophenyl)pyridin-2-ylcarbamoyl)phenoxy) chroman-4-carboxylic acid]
EC50 [1]: 5000 nM

SMILES: N#Cc1cc2c(cc1Oc1ccc(C(=O)NCCc3ccc(C(F)(F)F)cn3)cc1)OCCC2C(=O)O (stereo not shown) [Example 11]
EC50 [2]: 47.6 nM
EC50 [3]: 183 nM

SMILES: N#Cc1cc2c(cc1Oc1ccc(C(=O)NCCc3ccc(C(F)(F)F)nc3)cc1)OCCC2C(=O)O (stereo not shown) [Example 12, 6-Cyano-7-(4-(2-(6-(trifluoromethyl)pyridin-3-yl)ethylcarbamoyl)phenoxy)chroman-4-carboxylic acid]
EC50 [1]: 667 nM

SMILES: Cc1ccc(-c2cccc(NC(=O)c3ccc(Oc4cc5c(cc4C#N)C(C(=O)O)CCO5)cc3)n2)cc1C (stereo not shown) [Example 13, 6-Cyano-7-(4-(6-(3,4-dimethylphenyl)pyridin-2-ylcarbamoyl)phenoxy)chroman-4-carboxylic acid]
EC50 [1]: 45.1 nM

SMILES: Cc1cc(C(=O)Nc2ccc(C(F)(F)F)nc2)ccc1Oc1cc2c(cc1C#N)C(C(=O)O)CCO2 (stereo not shown) [Example 14, 6-Cyano-7-(2-methyl-4-(6-(trifluoromethyl)pyridin-3-ylcarbamoyl)phenoxy)chroman-4-carboxylic acid]
EC50 [2]: 55.8 nM

SMILES: O=C(Nc1ccc2cc(C(F)(F)F)ccc2n1)c1ccc(Oc2cc3c(cc2Cl)C(C(=O)O)CCO3)cc1 (stereo not shown) [Example 16, 6-Chloro-7-(4-(6-(trifluoromethyl)quinolin-2-ylcarbamoyl)phenoxy)chroman-4-carboxylic acid]
EC50 [1]: 142 nM

SMILES: O=C(Nc1ccc2cc(F)ccc2n1)c1ccc(Oc2cc3c(cc2Cl)C(C(=O)O)CCO3)cc1 (stereo not shown) [Example 18, 6-Chloro-7-(4-(6-fluoroquinolin-2-ylcarbamoyl)phenoxy)chroman-4-carboxylic acid]
EC50 [1]: 185 nM

SMILES: O=C(Nc1ccc2c(Cl)cccc2n1)c1ccc(Oc2cc3c(cc2Cl)C(C(=O)O)CCO3)cc1 (stereo not shown) [Example 19, 6-Chloro-7-(4-(5-chloroquinolin-2-ylcarbamoyl)phenoxy)chroman-4-carboxylic acid]
EC50 [1]: 210 nM

SMILES: Cc1cc(NC(=O)c2ccc(Oc3cc4c(cc3Cl)C(C(=O)O)CCO4)cc2)nc2ccccc12 (stereo not shown) [Example 21, 6-Chloro-7-(4-(4-methylquinolin-2-ylcarbamoyl)phenoxy)chroman-4-carboxylic acid]
EC50 [1]: 265 nM

SMILES: COc1ccc2nc(NC(=O)c3ccc(Oc4cc5c(cc4Cl)C(C(=O)O)CCO5)cc3)ccc2c1 (stereo not shown) [Example 22, 6-Chloro-7-(4-(6-methoxyquinolin-2-ylcarbamoyl)phenoxy)chroman-4-carboxylic acid]
EC50 [1]: 466 nM

SMILES: O=C(Nc1ccc2ccccc2n1)c1ccc(Oc2cc3c(cc2Cl)C(C(=O)O)CCO3)cc1 (stereo not shown) [Example 23, 6-Chloro-7-(4-(quinolin-2-ylcarbamoyl)phenoxy)chroman-4-carboxylic acid]
EC50 [1]: 586 nM

SMILES: Cc1cccc2ccc(NC(=O)c3ccc(Oc4cc5c(cc4Cl)C(C(=O)O)CCO5)cc3)nc12 (stereo not shown) [Example 24, 6-Chloro-7-(4-(8-methylquinolin-2-ylcarbamoyl)phenoxy)chroman-4-carboxylic acid]
EC50 [1]: 764 nM

The next lines start with the values.

EC50 [1]: 4000 nM
SMILES: O=C(Nc1ccc2cc(Cl)ccc2n1)c1ccc(Oc2cc3c(cc2Cl)[C@@H](C(=O)O)CCO3)cc1 (single isomer, unassigned; enantiomer 2) [Example 37, 6-Chloro-7-(4-(6-chloroquinolin-2-ylcarbamoyl)phenoxy)chroman-4-carboxylic acid, Enantiomer 2]

EC50 [2]: 19.3 nM
SMILES: N#Cc1cc2c(cc1Oc1ccc(C(=O)Nc3ccc(C(F)(F)F)cn3)cc1)OCCC2C(=O)O (stereo not shown) [Example 1, 7-(4-((5-(Trifluoromethyl)pyridin-2-yl)carbamoyl)phenoxy)-6-cyanochroman-4-carboxylic acid]

EC50 [2]: 26.7 nM
SMILES: N#Cc1cc2c(cc1Oc1ccc(C(=O)Nc3ccc(Cl)cn3)cc1)OCCC2C(=O)O (stereo not shown) [Example 2, 7-(4-(5-Chloropyridin-2-ylcarbamoyl)phenoxy)-6-cyanochroman-4-carboxylic acid]

EC50 [2]: 12.8 nM
EC50 [3]: 482 nM
SMILES: N#Cc1cc2c(cc1Oc1ccc(C(=O)Nc3ccc4ccccc4n3)cc1)OCCC2C(=O)O (stereo not shown) [Example 3, 6-Cyano-7-(4-(quinolin-2-ylcarbamoyl)phenoxy)chroman-4-carboxylic acid]

EC50 [2]: 27.7 nM
EC50 [3]: 370 nM
SMILES: N#Cc1cc2c(cc1Oc1ccc(C(=O)Nc3cnc4ccccc4n3)cc1)OCCC2C(=O)O (stereo not shown) [Example 4, 6-Cyano-7-(4-(quinoxalin-2-ylcarbamoyl)phenoxy)chroman-4-carboxylic acid]

EC50 [2]: 5.9 nM
EC50 [3]: 137 nM
EC50 [1]: 357 nM
SMILES: N#Cc1cc2c(cc1Oc1ccc(C(=O)Nc3ccc4cc(Cl)ccc4n3)cc1)OCCC2C(=O)O (stereo not shown) [Example 5, 7-(4-(6-Chloroquinolin-2-ylcarbamoyl)phenoxy)-6-cyanochroman-4-carboxylic acid]

EC50 [2]: 16.9 nM
EC50 [3]: 524 nM
SMILES: N#Cc1cc2c(cc1Oc1ccc(C(=O)Nc3ccc(C(F)(F)F)nc3)cc1)OCCC2C(=O)O (stereo not shown) [Example 6, 7-(4-((6-(Trifluoromethyl)pyridin-3-yl)carbamoyl)phenoxy)-6-cyanochroman-4-carboxylic acid]

EC50 [1]: 2070 nM
SMILES: COc1cccc2cc(NC(=O)c3ccc(Oc4cc5c(cc4C#N)C(C(=O)O)CCO5)cc3)cnc12 (stereo not shown) [Example 7, 6-Cyano-7-(4-(8-methoxyquinolin-3-ylcarbamoyl)phenoxy)chroman-4-carboxylic acid]

EC50 [1]: 695 nM
SMILES: N#Cc1cc2c(cc1Oc1ccc(C(=O)Nc3ncc4cc(Cl)ccc4n3)cc1)OCCC2C(=O)O (stereo not shown) [Example 8, 7-(4-(6-Chloroquinazolin-2-ylcarbamoyl)phenoxy)-6-cyanochroman-4-carboxylic acid]

EC50 [1]: 774 nM
SMILES: N#Cc1cc2c(cc1Oc1ccc(C(=O)Nc3cc4ccccc4cn3)cc1)OCCC2C(=O)O (stereo not shown) [Example 9, 6-Cyano-7-(4-(isoquinolin-3-ylcarbamoyl)phenoxy)chroman-4-carboxylic acid]

EC50 [2]: 37.8 nM
SMILES: N#Cc1cc2c(cc1Oc1ccc(C(=O)Nc3cnc4ccccc4c3)cc1)OCCC2C(=O)O (stereo not shown) [Example 10, 6-Cyano-7-(4-(quinolin-3-ylcarbamoyl)phenoxy)chroman-4-carboxylic acid]

EC50 [2]: 17.9 nM
EC50 [3]: 207 nM
EC50 [1]: 409 nM
SMILES: O=C(Nc1cnc2cc(Cl)ccc2n1)c1ccc(Oc2cc3c(cc2Cl)C(C(=O)O)CCO3)cc1 (stereo not shown) [Example 15, 6-Chloro-7-(4-(6-chloroquinoxalin-2-ylcarbamoyl)phenoxy)chroman-4-carboxylic acid]

EC50 [1]: 178 nM
SMILES: O=C(Nc1ccc2ccc(Cl)cc2n1)c1ccc(Oc2cc3c(cc2Cl)C(C(=O)O)CCO3)cc1 (stereo not shown) [Example 17, 6-Chloro-7-(4-(7-chloroquinolin-2-ylcarbamoyl)phenoxy)chroman-4-carboxylic acid]

EC50 [1]: 255 nM
SMILES: O=C(Nc1cnc2ccc(Cl)cc2n1)c1ccc(Oc2cc3c(cc2Cl)C(C(=O)O)CCO3)cc1 (stereo not shown) [Example 20, 6-Chloro-7-(4-(7-chloroquinoxalin-2-ylcarbamoyl)phenoxy)chroman-4-carboxylic acid]
